# Measurements published in PubChem BioAssay (NCI).
#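 Results reflect a 48-hour exposure of cells in 96-well plates to compound at five concentrations. At the TGI there is no net growth.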
# Legend:
# Assay in all cases: growth of human tumour cells (NCI), 48 h
# HT29 colon = system: HT29 colon
# HOP-62 NSCLC = system: HOP-62 NSCLC
# SK-MEL-2 melanoma = system: SK-MEL-2 melanoma
# HS 578T breast = system: HS 578T breast
# NCI-H522 lung = system: NCI-H522 lung
# K-562 leukemia = system: K-562 leukemia
# DU-145 prostate = system: DU-145 prostate
# NCI-H226 lung = system: NCI-H226 lung
# IGROV1 ovarian = system: IGROV1 ovarian
# A549 NSCLC = system: A549 NSCLC
# COLO 205 colon = system: COLO 205 colon
# SF-295 CNS = system: SF-295 CNS
# MDA-MB-435 = system: MDA-MB-435
# UACC-62 melanoma = system: UACC-62 melanoma
# M14 melanoma = system: M14 melanoma
# A498 renal = system: A498 renal
# HCT-116 colon = system: HCT-116 colon
# MCF7 breast = system: MCF7 breast
# UACC-257 melanoma = system: UACC-257 melanoma
# HCC-2998 colon = system: HCC-2998 colon
# TK-10 renal = system: TK-10 renal
# HL-60(TB) leukemia = system: HL-60(TB) leukemia
# CCRF-CEM leukemia = system: CCRF-CEM leukemia
# ACHN renal = system: ACHN renal
# MDA-N = system: MDA-N
# 786-0 renal = system: 786-0 renal
# HOP-92 NSCLC = system: HOP-92 NSCLC
# CAKI-1 renal = system: CAKI-1 renal
# PC-3 prostate = system: PC-3 prostate
# NCI/ADR-RES ovarian = system: NCI/ADR-RES ovarian
# MALME-3M melanoma = system: MALME-3M melanoma
# SK-MEL-28 melanoma = system: SK-MEL-28 melanoma
# SNB-75 CNS = system: SNB-75 CNS
# EKVX NSCLC = system: EKVX NSCLC
# SW-620 colon = system: SW-620 colon
# NCI-H23 lung = system: NCI-H23 lung
# SNB-19 CNS = system: SNB-19 CNS
# OVCAR-8 ovarian = system: OVCAR-8 ovarian
# U251 CNS = system: U251 CNS
# RPMI-8226 leukemia = system: RPMI-8226 leukemia
# HCT-15 colon = system: HCT-15 colon
# BT-549 breast = system: BT-549 breast
# T-47D breast = system: T-47D breast
# LOX IMVI melanoma = system: LOX IMVI melanoma
# SF-539 CNS = system: SF-539 CNS
# SK-MEL-5 melanoma = system: SK-MEL-5 melanoma
# UO-31 renal = system: UO-31 renal
# SF-268 CNS = system: SF-268 CNS
# MOLT-4 leukemia = system: MOLT-4 leukemia
# KM12 colon = system: KM12 colon
# MDA-MB-231 breast = system: MDA-MB-231 breast
# SN12C renal = system: SN12C renal
# NCI-H460 lung = system: NCI-H460 lung
# SK-OV-3 ovarian = system: SK-OV-3 ovarian
# OVCAR-5 ovarian = system: OVCAR-5 ovarian
# RXF 393 renal = system: RXF 393 renal
# OVCAR-4 ovarian = system: OVCAR-4 ovarian
# OVCAR-3 ovarian = system: OVCAR-3 ovarian
compound,measurement,setting,value
Cc1c(C)c(C)c(Cn2[nH]c(=O)n(C)c2=O)c(C)c1C,TGI,HT29 colon,> 100 µM
same,TGI,HOP-62 NSCLC,> 100 µM
same,TGI,SK-MEL-2 melanoma,> 100 µM
same,TGI,HS 578T breast,> 100 µM
same,TGI,NCI-H522 lung,> 100 µM
same,TGI,K-562 leukemia,> 100 µM
same,TGI,DU-145 prostate,> 100 µM
same,TGI,NCI-H226 lung,> 100 µM
same,TGI,IGROV1 ovarian,> 100 µM
same,TGI,A549 NSCLC,> 100 µM
same,TGI,COLO 205 colon,> 100 µM
same,TGI,SF-295 CNS,> 100 µM
same,TGI,MDA-MB-435,> 100 µM
same,TGI,UACC-62 melanoma,> 100 µM
same,TGI,M14 melanoma,> 100 µM
same,TGI,A498 renal,> 100 µM
same,TGI,HCT-116 colon,> 100 µM
same,TGI,MCF7 breast,> 100 µM
same,TGI,UACC-257 melanoma,> 100 µM
same,TGI,HCC-2998 colon,> 100 µM
same,TGI,TK-10 renal,> 100 µM
same,TGI,HL-60(TB) leukemia,> 100 µM
same,TGI,CCRF-CEM leukemia,> 100 µM
same,TGI,ACHN renal,> 100 µM
same,TGI,MDA-N,> 100 µM
same,TGI,786-0 renal,> 100 µM
same,TGI,HOP-92 NSCLC,> 100 µM
same,TGI,CAKI-1 renal,> 100 µM
same,TGI,PC-3 prostate,> 100 µM
same,TGI,NCI/ADR-RES ovarian,> 100 µM
same,TGI,MALME-3M melanoma,> 100 µM
same,TGI,SK-MEL-28 melanoma,> 100 µM
same,TGI,SNB-75 CNS,> 100 µM
same,TGI,EKVX NSCLC,> 100 µM
same,TGI,SW-620 colon,> 100 µM
same,TGI,NCI-H23 lung,> 100 µM
same,TGI,SNB-19 CNS,> 100 µM
same,TGI,OVCAR-8 ovarian,> 100 µM
same,TGI,U251 CNS,> 100 µM
same,TGI,RPMI-8226 leukemia,> 100 µM
same,TGI,HCT-15 colon,> 100 µM
same,TGI,BT-549 breast,> 100 µM
same,TGI,T-47D breast,> 100 µM
same,TGI,LOX IMVI melanoma,> 100 µM
same,TGI,SF-539 CNS,> 100 µM
same,TGI,SK-MEL-5 melanoma,> 100 µM
same,TGI,UO-31 renal,> 100 µM
same,TGI,SF-268 CNS,> 100 µM
same,TGI,MOLT-4 leukemia,> 100 µM
same,TGI,KM12 colon,> 100 µM
same,TGI,MDA-MB-231 breast,> 100 µM
same,TGI,SN12C renal,> 100 µM
same,TGI,NCI-H460 lung,> 100 µM
same,TGI,SK-OV-3 ovarian,> 100 µM
Cc1ccc(C2(c3ccc(Cl)cc3)c3ccccc3C3=NCCN32)cc1 (stereo not given),TGI,OVCAR-5 ovarian,26 µM
same,TGI,HT29 colon,14.6 µM
same,TGI,HOP-62 NSCLC,23.8 µM
same,TGI,SK-MEL-2 melanoma,28 µM
same,TGI,HS 578T breast,33.4 µM
same,TGI,K-562 leukemia,> 100 µM
same,TGI,DU-145 prostate,26.1 µM
same,TGI,NCI-H226 lung,35.6 µM
same,TGI,IGROV1 ovarian,14.9 µM
same,TGI,A549 NSCLC,25.3 µM
same,TGI,COLO 205 colon,18.7 µM
same,TGI,SF-295 CNS,20.6 µM
same,TGI,MDA-MB-435,10.1 µM
same,TGI,UACC-62 melanoma,20 µM
same,TGI,M14 melanoma,16.2 µM
same,TGI,A498 renal,20 µM
same,TGI,HCT-116 colon,10.1 µM
same,TGI,MCF7 breast,20.5 µM
same,TGI,UACC-257 melanoma,20.7 µM
same,TGI,HCC-2998 colon,18.8 µM
same,TGI,TK-10 renal,18.5 µM
same,TGI,HL-60(TB) leukemia,23.9 µM
same,TGI,CCRF-CEM leukemia,19.5 µM
same,TGI,ACHN renal,19.8 µM
same,TGI,MDA-N,12.4 µM
same,TGI,786-0 renal,26.9 µM
same,TGI,HOP-92 NSCLC,18.1 µM
same,TGI,CAKI-1 renal,37.9 µM
same,TGI,PC-3 prostate,21.6 µM
same,TGI,NCI/ADR-RES ovarian,24.9 µM
same,TGI,MALME-3M melanoma,16 µM
same,TGI,SK-MEL-28 melanoma,35.9 µM
same,TGI,SNB-75 CNS,24.9 µM
same,TGI,EKVX NSCLC,28.9 µM
same,TGI,RXF 393 renal,10.9 µM
same,TGI,SW-620 colon,32.6 µM
same,TGI,NCI-H23 lung,32 µM
same,TGI,SNB-19 CNS,28.2 µM
same,TGI,OVCAR-8 ovarian,29.4 µM
same,TGI,U251 CNS,29 µM
same,TGI,RPMI-8226 leukemia,28.9 µM
same,TGI,HCT-15 colon,24 µM
same,TGI,BT-549 breast,25.9 µM
same,TGI,T-47D breast,39.2 µM
same,TGI,LOX IMVI melanoma,27.7 µM
same,TGI,SK-MEL-5 melanoma,23.2 µM
same,TGI,OVCAR-4 ovarian,16.9 µM
same,TGI,UO-31 renal,18.1 µM
same,TGI,OVCAR-3 ovarian,24.9 µM
same,TGI,SF-268 CNS,31.5 µM
same,TGI,MOLT-4 leukemia,20.9 µM
same,TGI,KM12 colon,22.8 µM
same,TGI,MDA-MB-231 breast,19.4 µM
same,TGI,SN12C renal,29.7 µM
same,TGI,NCI-H460 lung,20.7 µM
same,TGI,SK-OV-3 ovarian,20.7 µM
